Experimental findings from PubChem BioAssay (NCI) are described below.

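Compound exposure: 48 hours, 5 concentrations, 96-well plates. At the GI50, growth is halved. At the TGI there is no net growth.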

Test systems include UACC-257 melanoma; SF-268 CNS; NCI-H522 lung; MALME-3M melanoma; HL-60(TB) leukemia; A498 renal; RXF 393 renal; ACHN renal; SR leukemia; SF-539 CNS.
What all share (assay): inhibition of tumour cell growth, NCI panel, 48 h

Turning to `COc1ccc(-c2ccc(-c3ccc(C(=N)N)s3)s2)cc1`, the GI50 in the assay on UACC-257 melanoma is 746 nM; in the assay on SF-268 CNS, 211 nM; in the assay on NCI-H522 lung it was 264 nM; in the assay on MALME-3M melanoma it was 564 nM; with HL-60(TB) leukemia it was 208 nM; with A498 renal, 1100 nM. For the same compound, the GI50 in the assay on RXF 393 renal is 1260 nM; with ACHN renal, 190 nM; in the assay on SR leukemia it was 208 nM; in the assay on SF-539 CNS, 188 nM. Moreover, the TGI with UACC-257 melanoma was 1680 nM; in the assay with SF-268 CNS, 451 nM; in the assay on NCI-H522 lung, 1200 nM; with MALME-3M melanoma, 1390 nM; in the assay on HL-60(TB) leukemia, 423 nM; in the assay with A498 renal it was 2410 nM. For the same compound, the TGI in the assay on RXF 393 renal was 3050 nM; in the assay with ACHN renal, 359 nM; in the assay on SR leukemia, 566 nM; with SF-539 CNS it was 346 nM.
On to `O=C(/C=C/c1ccccc1Cl)NC1C=Nc2ccc([N+](=O)[O-])cc2NC1` (stereo not given), for which the TGI in the assay with UACC-257 melanoma, with SF-268 CNS, with NCI-H522 lung, in the assay with MALME-3M melanoma, in the assay with HL-60(TB) leukemia and with A498 renal was more than 100000 nM in each case. In addition, the TGI in the assay on RXF 393 renal is more than 100000 nM; in the assay on ACHN renal it was more than 100000 nM; in the assay on SR leukemia it was 96200 nM; in the assay with SF-539 CNS it was more than 100000 nM.
On to `O=C1NC(=NCCc2cccc(Cl)c2)S/C1=C\c1ccc2ncccc2c1`, for which the GI50 in the assay with UACC-257 melanoma, in the assay with SF-268 CNS, in the assay with NCI-H522 lung, in the assay with MALME-3M melanoma, with HL-60(TB) leukemia and in the assay with A498 renal was more than 25000 nM each time. The GI50 is more than 25000 nM in the assay with RXF 393 renal, more than 25000 nM in the assay on ACHN renal, 403 nM in the assay on SR leukemia and more than 25000 nM with SF-539 CNS. In addition, the TGI in the assay with UACC-257 melanoma, in the assay with SF-268 CNS, in the assay with NCI-H522 lung, in the assay on MALME-3M melanoma, in the assay with HL-60(TB) leukemia and in the assay on A498 renal was more than 25000 nM throughout. Further, the TGI in the assay with RXF 393 renal, in the assay on ACHN renal, with SR leukemia and in the assay on SF-539 CNS was more than 25000 nM throughout.
